From US20260232673A1, “ISOINDOLINONE GLUTARIMIDE AND PHENYL GLUTARIMIDE ANALOGS AS DEGRADERS OF RET KINASE” (Bristol-Myers Squibb Company, priority 2023, published 2026)
Values belong to the compound of their own block, whether it stands above or below them.

Biological target: T1, CCDC6-RET fusion (Homo sapiens, UniProt P07949+Q16204+Q96SW2)
T1 construct: CCDC6 (N-terminal fusion partner from the natural gene rearrangement, Q16204); endogenous in cells; host or cells: TPC-1 (parental) papillary thyroid carcinoma cells
Test: Cellular RET degradation assay (AlphaLISA Surefire Ultra, TPC-1 cells)
Type: cell-based
Conditions: half-maximal degradation concentration (DC50); parental TPC-1/CCDC6-RET cell line; 24 hrs compound treatment; AlphaLISA luminescence; read-out: Cell Density TPC-1/CCDC6-RET IC50
Description: Cellular RET degradation compound potency was determined using the bead-based luminescent amplification assay—AlphaLISA Surefire Ultra Detection Kit (Perkin-Elmer). The CCDC6-RET fusion expressing papillary thyroid carcinoma (TPC-1) cell line was selected for screening of potential degraders: Parental (TPC-1/CCDC6-RET). Cells were plated in 384 well culture plates (Greiner Bio-One) at 10,000 cells/well in 50 ul/well DMEM (Fisher Scientific) with 2% FBS serum (Gibco). […] Low normalization wells were media only and high normalization wells were cells treated with DMSO only. Treated cell plates were placed in an incubator at 37C and 5% CO2 for 24 hrs. At 24 hrs, cell media was removed by a FELIX automated liquid hander (Analytik Jena) and 25 ul of cell lysis buffer (provided in AlphaLisa kit) was added to each well. 5 ul cell lysate were transferred into a 384-well microplate (Perkin Elmer) before addition of 2.5 ul AlphaLISA Acceptor Bead mix. The plates were sealed and kept at room temperature for 1 hr before addition of donor bead mixture. Donor bead addition was performed in the dark and incubated for >1 hr before AlphaLISA luminescence was measured on an Envision plate reader with an Alphascreen aperture at RT (excitation 680 nm, emission 615 nm). RET protein abundance (and therefore degradation) directly corresponds to luminescence intensity.
Intensities were normalized relative to the average values from 16 wells containing media alone (blank-low) and 16 wells containing cells+DMSO (high). % Degradation for each well was determined using the standard equation, where
DC50 (IC50) values for each compound tested are calculated by analyzing plots of % degradation versus compound concentration, and fitting to the standard 4-parameter logistic curve where,
Top and bottom are the % degradation at infinitely large and infinitely small compound concentrations, respectively, while Halfmax is the compound concentration yielding % degradation corresponding to ½ Top-Bottom, and N is the Hill coefficient. DC50 values are calculated according to the relationship,
Compound replicates were performed in independent assays. Maximum degradation (YMax) was defined as the maximal % degradation value from the 4-parameter logistic equation, as previously described.

T1 sequence (Q16204+P07949 fused): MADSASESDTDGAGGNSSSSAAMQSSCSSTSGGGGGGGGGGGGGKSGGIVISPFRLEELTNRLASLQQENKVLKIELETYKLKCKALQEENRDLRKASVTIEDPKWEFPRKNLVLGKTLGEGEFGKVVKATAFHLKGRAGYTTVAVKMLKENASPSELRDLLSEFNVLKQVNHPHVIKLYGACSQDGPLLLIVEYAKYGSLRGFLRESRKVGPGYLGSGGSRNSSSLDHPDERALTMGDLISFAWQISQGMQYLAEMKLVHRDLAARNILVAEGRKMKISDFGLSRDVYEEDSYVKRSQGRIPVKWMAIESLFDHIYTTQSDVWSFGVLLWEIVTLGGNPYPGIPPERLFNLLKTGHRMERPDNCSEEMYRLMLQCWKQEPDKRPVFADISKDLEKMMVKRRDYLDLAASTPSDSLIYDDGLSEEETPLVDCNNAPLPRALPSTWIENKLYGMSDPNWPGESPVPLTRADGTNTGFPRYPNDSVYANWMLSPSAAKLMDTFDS
T1 sequence (Q96SW2 whole entry, the tested form may be a part): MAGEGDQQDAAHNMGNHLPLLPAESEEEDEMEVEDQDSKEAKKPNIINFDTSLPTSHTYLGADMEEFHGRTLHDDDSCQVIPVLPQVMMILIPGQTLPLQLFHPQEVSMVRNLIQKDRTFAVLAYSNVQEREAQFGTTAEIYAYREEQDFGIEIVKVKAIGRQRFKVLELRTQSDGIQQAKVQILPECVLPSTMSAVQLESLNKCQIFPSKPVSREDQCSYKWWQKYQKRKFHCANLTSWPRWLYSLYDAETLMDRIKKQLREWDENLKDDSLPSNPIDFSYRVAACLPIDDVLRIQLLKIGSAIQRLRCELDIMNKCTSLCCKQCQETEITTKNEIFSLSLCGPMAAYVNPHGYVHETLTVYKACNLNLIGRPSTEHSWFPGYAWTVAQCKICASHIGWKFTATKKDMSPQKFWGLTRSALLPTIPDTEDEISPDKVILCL

SMILES: Nc1ncnc2c1c(-c1noc(C3CC3)c1-c1ccccn1)nn2[C@H]1C[C@H](C(=O)NCCN2CCC(c3ccc4c(c3)CN(C3CCC(=O)NC3=O)C4=O)CC2)C1 (stereo partly drawn) [Example A3, (1r,3r)-3-{4-amino-3-[5-cyclopropyl-4-(pyridin-2-yl)-1,2-oxazol-3-yl]-1H-pyrazolo[3,4-d]pyrimidin-1-yl}-N-(2-{4-[2-(2,6-dioxopiperidin-3-yl)-1-oxo-2,3-dihydro-1H-isoindol-5-yl]piperidin-1-yl}ethyl)cyclobutane-1-carboxamide]
DC50: 10.2 nM

SMILES: Nc1ncnc2c1c(-c1noc(C3CC3)c1-c1ccccn1)nn2[C@H]1C[C@H](C(=O)NCCCCCCN2CCC(c3ccc4c(c3)CN(C3CCC(=O)NC3=O)C4=O)CC2)C1 (stereo partly drawn) [Example A5, (1r,3r)-3-{4-amino-3-[5-cyclopropyl-4-(pyridin-2-yl)-1,2-oxazol-3-yl]-1H-pyrazolo[3,4-d]pyrimidin-1-yl}-N-(6-{4-[2-(2,6-dioxopiperidin-3-yl)-1-oxo-2,3-dihydro-1H-isoindol-5-yl]piperidin-1-yl}hexyl)cyclobutane-1-carboxamide]
DC50: 9.27 nM

SMILES: Nc1ncnc2c1c(-c1noc(C3CC3)c1-c1ccccn1)nn2[C@H]1C[C@H](C(=O)NCCCCN2CCC(c3ccc4c(c3)C(=O)N(C3CCC(=O)NC3=O)C4)CC2)C1 (stereo partly drawn) [Example A8, (1r,3r)-3-{4-amino-3-[5-cyclopropyl-4-(pyridin-2-yl)-1,2-oxazol-3-yl]-1H-pyrazolo[3,4-d]pyrimidin-1-yl}-N-(4-{4-[2-(2,6-dioxopiperidin-3-yl)-3-oxo-2,3-dihydro-1H-isoindol-5-yl]piperidin-1-yl}butyl)cyclobutane-1-carboxamide]
DC50: 17.4 nM

SMILES: Nc1ncnc2c1c(-c1noc(C3CC3)c1-c1ccccn1)nn2[C@H]1C[C@H](C(=O)NCCCCCCN2CCC(c3ccc4c(c3)C(=O)N(C3CCC(=O)NC3=O)C4)CC2)C1 (stereo partly drawn) [Example A9, (1r,3r)-3-{4-amino-3-[5-cyclopropyl-4-(pyridin-2-yl)-1,2-oxazol-3-yl]-1H-pyrazolo[3,4-d]pyrimidin-1-yl}-N-(6-{4-[2-(2,6-dioxopiperidin-3-yl)-3-oxo-2,3-dihydro-1H-isoindol-5-yl]piperidin-1-yl}hexyl)cyclobutane-1-carboxamide]
DC50: 22 nM

SMILES: Nc1ncnc2c1c(-c1noc(C3CC3)c1-c1ccccn1)nn2[C@H]1C[C@H](C(=O)NCCCCNc2ccc(C3CCC(=O)NC3=O)cc2)C1 (stereo partly drawn) [Example A11, (1r,3r)-3-{4-amino-3-[5-cyclopropyl-4-(pyridin-2-yl)-1,2-oxazol-3-yl]-1H-pyrazolo[3,4-d]pyrimidin-1-yl}-N-(4-{[4-(2,6-dioxopiperidin-3-yl)phenyl]amino}butyl) cyclobutane-1-carboxamide]
DC50: 57.6 nM

SMILES: CC(C)n1nc(-c2noc(C3CC3)c2-c2cn(C3CCN(C(=O)CCCCN4CCC(c5ccc6c(c5)C(=O)N(C5CCC(=O)NC5=O)C6)CC4)CC3)cn2)c2c(N)ncnc21 (stereo not drawn) [Example A17, 3-[6-(1-{5-[4-(4-{3-[4-amino-1-(propan-2-yl)-1H-pyrazolo[3,4-d]pyrimidin-3-yl]-5-cyclopropyl-1,2-oxazol-4-yl}-1H-imidazol-1-yl)piperidin-1-yl]-5-oxopentyl}piperidin-4-yl)-1-oxo-2,3-dihydro-1H-isoindol-2-yl]piperidine-2,6-dione]
DC50: 43.2 nM

SMILES: CC(C)n1nc(-c2noc(C3CC3)c2C2CCN(C(=O)CCCCCCN3CCN(c4ccc5c(c4)C(=O)N(C4CCC(=O)NC4=O)C5)CC3)CC2)c2c(N)ncnc21 (stereo not drawn) [Example A19, 3-(6-{4-[7-(4-{3-[4-amino-1-(propan-2-yl)-1H-pyrazolo[3,4-d]pyrimidin-3-yl]-5-cyclopropyl-1,2-oxazol-4-yl}piperidin-1-yl)-7-oxoheptyl]piperazin-1-yl}-1-oxo-2,3-dihydro-1H-isoindol-2-yl)piperidine-2,6-dione]
DC50: 27.8 nM

SMILES: COC1(C(=O)N[C@@H](CCCNC(=O)CCCCCCN2CCN(c3ccc4c(c3)CN(C3CCC(=O)NC3=O)C4=O)CC2)c2ccc(-n3cc(F)cn3)nc2)CCN(c2nc(C)cc(Nc3cc(C)[nH]n3)n2)CC1 (stereo partly drawn) [Example A34, 7-{4-[2-(2,6-dioxopiperidin-3-yl)-1-oxo-2,3-dihydro-1H-isoindol-5-yl]piperazin-1-yl}-N-[(4S)-4-[6-(4-fluoro-1H-pyrazol-1-yl)pyridin-3-yl]-4-[(4-methoxy-1-{4-methyl-6-[(5-methyl-1H-pyrazol-3-yl)amino]pyrimidin-2-yl}piperidin-4-yl)formamido]butyl] heptanamide]
DC50: 13.2 nM

The next compounds have a lower DC50 than those just listed; values first:

DC50: 3.17 nM
SMILES: Nc1ncnc2c1c(-c1noc(C3CC3)c1-c1ccccn1)nn2[C@H]1C[C@H](C(=O)NCCCCN2CCN(c3ccc4c(c3)CN(C3CCC(=O)NC3=O)C4=O)CC2)C1 (stereo partly drawn) [Example A2, (1r,3r)-3-{4-amino-3-[5-cyclopropyl-4-(pyridin-2-yl)-1,2-oxazol-3-yl]-1H-pyrazolo[3,4-d]pyrimidin-1-yl}-N-(4-{4-[2-(2,6-dioxopiperidin-3-yl)-1-oxo-2,3-dihydro-1H-isoindol-5-yl]piperazin-1-yl}butyl)cyclobutane-1-carboxamide]

DC50: 6.51 nM
SMILES: Nc1ncnc2c1c(-c1noc(C3CC3)c1-c1ccccn1)nn2[C@H]1C[C@H](C(=O)NCCCCN2CCC(c3ccc4c(c3)CN(C3CCC(=O)NC3=O)C4=O)CC2)C1 (stereo partly drawn) [Example A4, (1r,3r)-3-{4-amino-3-[5-cyclopropyl-4-(pyridin-2-yl)-1,2-oxazol-3-yl]-1H-pyrazolo[3,4-d]pyrimidin-1-yl}-N-(4-{4-[2-(2,6-dioxopiperidin-3-yl)-1-oxo-2,3-dihydro-1H-isoindol-5-yl]piperidin-1-yl}butyl) cyclobutane-1-carboxamide]

DC50: 6.42 nM
SMILES: Nc1ncnc2c1c(-c1noc(C3CC3)c1-c1ccccn1)nn2[C@H]1C[C@H](C(=O)NCCCCN2CCN(c3ccc4c(c3)C(=O)N(C3CCC(=O)NC3=O)C4)CC2)C1 (stereo partly drawn) [Example A6, (1r,3r)-3-{4-amino-3-[5-cyclopropyl-4-(pyridin-2-yl)-1,2-oxazol-3-yl]-1H-pyrazolo[3,4-d]pyrimidin-1-yl}-N-(4-{4-[2-(2,6-dioxopiperidin-3-yl)-3-oxo-2,3-dihydro-1H-isoindol-5-yl]piperazin-1-yl}butyl) cyclobutane-1-carboxamide]

DC50: 5.32 nM
SMILES: Nc1ncnc2c1c(-c1noc(C3CC3)c1-c1ccccn1)nn2[C@H]1C[C@H](C(=O)NCCCCCCN2CCN(c3ccc4c(c3)C(=O)N(C3CCC(=O)NC3=O)C4)CC2)C1 (stereo partly drawn) [Example A7, (1r,3r)-3-{4-amino-3-[5-cyclopropyl-4-(pyridin-2-yl)-1,2-oxazol-3-yl]-1H-pyrazolo[3,4-d]pyrimidin-1-yl}-N-(6-{4-[2-(2,6-dioxopiperidin-3-yl)-3-oxo-2,3-dihydro-1H-isoindol-5-yl]piperazin-1-yl}hexyl) cyclobutane-1-carboxamide]

DC50: 1.77 nM
SMILES: CC(C)n1nc(-c2noc(C3CC3)c2-c2cn(C3CCN(C(=O)CCCCCCN4CCN(c5ccc6c(c5)CN(C5CCC(=O)NC5=O)C6=O)CC4)CC3)cn2)c2c(N)ncnc21 (stereo not drawn) [Example A12, 3-[5-(4-{7-[4-(4-{3-[4-amino-1-(propan-2-yl)-1H-pyrazolo[3,4-d]pyrimidin-3-yl]-5-cyclopropyl-1,2-oxazol-4-yl}-1H-imidazol-1-yl)piperidin-1-yl]-7-oxoheptyl}piperazin-1-yl)-1-oxo-2,3-dihydro-1H-isoindol-2-yl]piperidine-2,6-dione]

DC50: 2.02 nM
SMILES: CC(C)n1nc(-c2noc(C3CC3)c2-c2cn(C3CCN(C(=O)CCCCCCN4CCC(c5ccc6c(c5)CN(C5CCC(=O)NC5=O)C6=O)CC4)CC3)cn2)c2c(N)ncnc21 (stereo not drawn) [Example A14, 3-[5-(1-{7-[4-(4-{3-[4-amino-1-(propan-2-yl)-1H-pyrazolo[3,4-d]pyrimidin-3-yl]-5-cyclopropyl-1,2-oxazol-4-yl}-1H-imidazol-1-yl)piperidin-1-yl]-7-oxoheptyl}piperidin-4-yl)-1-oxo-2,3-dihydro-1H-isoindol-2-yl]piperidine-2,6-dionc]

DC50: 4.88 nM
SMILES: COC1(C(=O)N[C@@H](CCCNC(=O)CCCCCCCCNc2cccc(C3CCC(=O)NC3=O)c2)c2ccc(-n3cc(F)cn3)nc2)CCN(c2nc(C)cc(Nc3cc(C)[nH]n3)n2)CC1 (stereo partly drawn) [Example A29]
